Results as given in patent US9403756B2, “N-phenyl anthranilic acid derivatives and uses thereof” (Ramot at Tel-Aviv University Ltd., priority 2007, dated 2016).

Tests used:
[1] = biological target: T1, Kv1.2 (Homo sapiens, UniProt P16389); assay: Kv channel selectivity, transfected CHO cells: Kv1.2; format: cell-based; details: for Fold current amplitude: 0 mV, transfected CHO cells
T1 construct: expressed in transfected cells; host or cells: CHO cells
Method: Voltage-clamp recordings in CHO cells were performed, using the whole-cell configuration of the patch-clamp technique. Signals were amplified using an Axopatch 200B patch-clamp amplifier (Molecular Devices, Sunnyvale, Calif.), sampled at 2 kHz and filtered at 800 Hz via a 4-pole Bessel low pass filter. Data were acquired using pClamp 9.2 software (Molecular Devices) and an IBM compatible Pentium IV computer in conjunction with a DigiData 1322A interface (Molecular Devices). The patch pipettes were pulled from borosilicate glass (Warner Instrument Corp, USA) with a resistance of 2-5 MΩ. For K^+ current recordings in CHO cells, the intracellular pipette solution contained (in mM): 130 KCl, 1 MgCl2, 5 K2ATP, 5 EGTA, 10 HEPES, adjusted with KOH to pH 7.4 (290 mOsm). The extracellular solution contained (in mM): 140 NaCl, 4 KCl, 1.8 CaCl2, 1.2 MgCl2, 11 glucose, 5.5 HEPES, adjusted with NaOH to pH 7.4 (310 mOsm). Series resistances (3-13 MΩ) were compensated (75-90%) and periodically monitored.
(§1) The selectivity of NH29 on other relevant Kv channels expressed in Xenopus oocytes was also studied, and the results are summarized in Table 3 below. The specificity of NH29 at 25 μM and 50 μM towards various Kv channels was tested in Xenopus oocytes, except for Kv1.2 which was checked in transfected CHO cells. The current amplitude of the various Kv channels was tested at the indicated voltages and the effect of the drugs was expressed as fold of the control amplitude measured under the same conditions in the absence of the drug. The data in Table 3 are expressed as mean±SEM of 5-7 separate experiments.

[2] = biological target: T2, Kv 7.4 (Homo sapiens, UniProt P56696); assay: Kv channel selectivity, Xenopus oocytes: Kv7.4; format: cell-based; details: −30 mV
T2 construct: expressed in transfected cells; host or cells: Xenopus oocytes
Method: (§2) Voltage-clamp measurements in Xenopus oocytes were performed as previously described.
as §1

[3] = biological target: T3, KCNQ2 mutant R198A (Homo sapiens, UniProt O43526, R198A); assay: KCNQ2 S4 mutant R198A; format: cell-based; details: 25 μM NH29 (25 M [sic])
T3 construct: expressed in transfected cells
From the text: (§3) FIGS. 12A-F present the potentiating effect of NH29, an exemplary channel opener compound according to embodiments of the present invention, on selected KCNQ2 mutants. Shown are bar diagrams comparing the potentiating effect of NH29 on native KCNQ2 and KCNQ2 mutants, wherein the mutated amino acids are located at the S1-S2 helix region (FIG. 12A) or S4 helix region (FIG. 12D) and wherein the opener effect is expressed as percent of the control current in the absence of the opener. For comparison, marked as a green line, is the observed current increase of native KCNQ2 by NH29. FIGS. 12B 12C, 12E and 12F present representative traces recorded from CHO cell transfected with the KCNQ2 mutant S122A, S121A, L206C and R201A respectively, before and after external application of 25 μM of NH29 and wherein the membrane potential was stepped from −90 mV holding potential to −40 mV for 1.5 seconds pulse duration.
(§4) Voltage-clamp recordings in CHO cells were performed, using the whole-cell configuration of the patch-clamp technique. Signals were amplified using an Axopatch 200B patch-clamp amplifier (Molecular Devices, Sunnyvale, Calif.), sampled at 2 kHz and filtered at 800 Hz via a 4-pole Bessel low pass filter. […] Series resistances (3-13 MΩ) were compensated (75-90%) and periodically monitored.

[4] = tested on: DRG neurons; assay: Current-clamp recordings in cultured DRG neurons; format: cell-based, rat; details: 25 μM NH29; 75-250 pA for 400 ms; control 8.7±0.8; n=12
[5] = biological target: T4, KCNQ2 mutant L206C (Homo sapiens, UniProt O43526, L206C); assay: KCNQ2 S4 mutant L206C in CHO cells; format: cell-based; details: 25 μM NH29
T4 construct: expressed in transfected cells; host or cells: CHO cells
From the text: as §3, §4

[6] = biological target: T5, Kv 4.3 (Homo sapiens, UniProt Q9UK17); assay: Kv channel selectivity, Xenopus oocytes: Kv4.3; format: cell-based; details: 25 μM, +30 mV
T5 construct: expressed in transfected cells; host or cells: Xenopus oocytes
Method: as §2, §1

[7] = biological target: T6, IKS (Homo sapiens, UniProt P51787); assay: Kv channel selectivity, Xenopus oocytes: IKS; format: cell-based; details: +30 mV
T6 construct: expressed in transfected cells; host or cells: Xenopus oocytes
Method: as §2, §1

[8] = tested on: hippocampal neurons; assay: Current-clamp recordings in cultured hippocampal neurons; format: cell-based, rat
Method: For hippocampal neuronal cultures, Sprague-Dawley rat embryos (E18) were removed by caesarian section and their hippocampi were dissected out. The tissue was digested with papain for 20 min, triturated to a single-cell suspension, and plated at a density of 40,000 cells per ml on a substrate of bovine collagen type IV and 100 μg/ml poly-L-lysine in 13 mm diameter glass coverslips of a 24-multiwell plate. The culture medium consisted of Modified Eagle's Medium containing 5% horse serum (Biological Industries, Beit HaEmek, Israel), B-27 neuronal supplement (Invitrogen, Carlsbad, Calif.), 100 U/ml penicillin, 100 μg/ml streptomycin, and 2 mM glutamine. D-glucose was supplemented to a final concentration of 6 g/l. Cytosine-1-D-arabinofuranoside (5 μM) was added after 5 days to arrest glial cell proliferation.
For electrophysiological recordings hippocampal neurons were used at 10-14 days in culture. All cultures were maintained at 37° C. in humidified air containing 5% CO2.
For current-clamp recordings in primary cultured neurons, the patch pipettes were filled with (in mM): 135 KCl, 1 K2ATP, 1 MgATP, 2 EGTA, 1.1 CaCl2, 5 glucose, 10 HEPES, adjusted with KOH at pH 7.4 (315 mOsm). […] A liquid junction potential of about −15.6 mV was measured between the intracellular and saline solutions and corrected on-line. […]

T1 sequence (P16389 whole entry): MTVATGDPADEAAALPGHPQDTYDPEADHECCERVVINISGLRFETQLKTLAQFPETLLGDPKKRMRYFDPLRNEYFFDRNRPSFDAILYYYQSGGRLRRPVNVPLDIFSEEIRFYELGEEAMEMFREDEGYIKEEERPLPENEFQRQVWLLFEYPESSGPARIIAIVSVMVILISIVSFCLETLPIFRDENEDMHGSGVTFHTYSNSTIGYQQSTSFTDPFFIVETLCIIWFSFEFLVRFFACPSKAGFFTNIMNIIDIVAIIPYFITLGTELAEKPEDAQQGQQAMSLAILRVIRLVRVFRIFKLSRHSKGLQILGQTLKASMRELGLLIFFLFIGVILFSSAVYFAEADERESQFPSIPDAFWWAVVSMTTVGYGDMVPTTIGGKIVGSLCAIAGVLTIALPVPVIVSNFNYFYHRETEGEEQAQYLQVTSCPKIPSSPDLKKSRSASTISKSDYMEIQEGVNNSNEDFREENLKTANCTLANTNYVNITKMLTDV
T2 sequence (P56696 whole entry): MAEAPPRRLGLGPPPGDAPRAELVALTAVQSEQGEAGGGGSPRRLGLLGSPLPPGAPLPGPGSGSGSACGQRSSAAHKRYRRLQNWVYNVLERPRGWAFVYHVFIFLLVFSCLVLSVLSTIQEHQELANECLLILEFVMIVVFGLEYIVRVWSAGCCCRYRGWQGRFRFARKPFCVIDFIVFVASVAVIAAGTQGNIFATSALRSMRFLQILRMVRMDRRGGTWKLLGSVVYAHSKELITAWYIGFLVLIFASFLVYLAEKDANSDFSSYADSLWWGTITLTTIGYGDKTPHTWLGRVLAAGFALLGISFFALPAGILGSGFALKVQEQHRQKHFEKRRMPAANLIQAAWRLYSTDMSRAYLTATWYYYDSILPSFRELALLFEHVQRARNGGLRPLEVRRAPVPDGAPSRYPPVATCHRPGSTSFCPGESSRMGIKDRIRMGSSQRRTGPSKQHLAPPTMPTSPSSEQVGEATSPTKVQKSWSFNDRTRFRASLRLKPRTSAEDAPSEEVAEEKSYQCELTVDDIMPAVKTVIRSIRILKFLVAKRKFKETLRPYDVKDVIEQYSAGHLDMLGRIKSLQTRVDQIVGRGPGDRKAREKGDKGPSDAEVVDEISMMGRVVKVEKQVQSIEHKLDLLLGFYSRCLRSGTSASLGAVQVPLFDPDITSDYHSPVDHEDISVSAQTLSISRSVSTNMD
T6 sequence (P51787 whole entry): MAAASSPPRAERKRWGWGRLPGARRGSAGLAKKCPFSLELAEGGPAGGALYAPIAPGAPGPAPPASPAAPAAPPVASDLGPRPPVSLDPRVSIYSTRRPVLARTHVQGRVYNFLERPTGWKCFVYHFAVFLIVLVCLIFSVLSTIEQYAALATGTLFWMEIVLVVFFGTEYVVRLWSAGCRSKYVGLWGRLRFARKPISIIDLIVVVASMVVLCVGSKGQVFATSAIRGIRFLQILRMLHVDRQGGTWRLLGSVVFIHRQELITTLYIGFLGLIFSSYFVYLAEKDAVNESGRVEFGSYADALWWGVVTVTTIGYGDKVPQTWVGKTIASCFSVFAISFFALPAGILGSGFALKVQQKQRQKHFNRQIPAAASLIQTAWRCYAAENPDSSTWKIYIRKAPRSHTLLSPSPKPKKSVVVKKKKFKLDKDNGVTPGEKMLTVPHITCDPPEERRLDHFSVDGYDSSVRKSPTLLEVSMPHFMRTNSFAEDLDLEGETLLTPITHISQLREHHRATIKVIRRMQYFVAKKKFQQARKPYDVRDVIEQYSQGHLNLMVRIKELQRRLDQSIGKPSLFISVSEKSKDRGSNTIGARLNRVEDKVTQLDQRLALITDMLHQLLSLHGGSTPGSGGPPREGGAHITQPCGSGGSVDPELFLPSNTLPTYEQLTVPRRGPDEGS
T4 sequence (O43526 whole entry L206C): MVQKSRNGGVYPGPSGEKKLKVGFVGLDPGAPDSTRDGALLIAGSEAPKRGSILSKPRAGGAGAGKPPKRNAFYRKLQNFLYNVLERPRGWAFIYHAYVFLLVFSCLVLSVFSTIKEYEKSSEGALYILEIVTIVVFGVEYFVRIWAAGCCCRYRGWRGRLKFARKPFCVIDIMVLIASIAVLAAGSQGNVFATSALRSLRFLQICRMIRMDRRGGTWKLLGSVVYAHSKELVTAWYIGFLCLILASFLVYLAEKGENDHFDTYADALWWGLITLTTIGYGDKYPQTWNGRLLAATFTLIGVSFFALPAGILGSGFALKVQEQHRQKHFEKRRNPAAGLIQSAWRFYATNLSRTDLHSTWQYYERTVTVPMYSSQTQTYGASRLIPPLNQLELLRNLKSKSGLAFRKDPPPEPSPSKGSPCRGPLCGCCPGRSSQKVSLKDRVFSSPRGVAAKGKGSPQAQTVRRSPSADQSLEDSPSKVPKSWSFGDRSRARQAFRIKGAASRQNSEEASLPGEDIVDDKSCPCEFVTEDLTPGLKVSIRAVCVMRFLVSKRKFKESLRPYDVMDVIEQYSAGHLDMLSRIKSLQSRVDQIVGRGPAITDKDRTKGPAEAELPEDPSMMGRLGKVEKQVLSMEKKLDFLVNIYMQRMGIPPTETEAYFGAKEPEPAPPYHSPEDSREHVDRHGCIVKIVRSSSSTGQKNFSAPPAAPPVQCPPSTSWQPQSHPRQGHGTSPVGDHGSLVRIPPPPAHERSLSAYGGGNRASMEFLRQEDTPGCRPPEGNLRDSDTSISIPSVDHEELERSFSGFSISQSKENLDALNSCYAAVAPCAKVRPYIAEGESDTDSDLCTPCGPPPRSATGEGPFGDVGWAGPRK
T3 sequence (O43526 whole entry R198A): as the sequence (O43526 whole entry L206C) above, with R198A, C206L counted along it
T5 sequence (Q9UK17 whole entry): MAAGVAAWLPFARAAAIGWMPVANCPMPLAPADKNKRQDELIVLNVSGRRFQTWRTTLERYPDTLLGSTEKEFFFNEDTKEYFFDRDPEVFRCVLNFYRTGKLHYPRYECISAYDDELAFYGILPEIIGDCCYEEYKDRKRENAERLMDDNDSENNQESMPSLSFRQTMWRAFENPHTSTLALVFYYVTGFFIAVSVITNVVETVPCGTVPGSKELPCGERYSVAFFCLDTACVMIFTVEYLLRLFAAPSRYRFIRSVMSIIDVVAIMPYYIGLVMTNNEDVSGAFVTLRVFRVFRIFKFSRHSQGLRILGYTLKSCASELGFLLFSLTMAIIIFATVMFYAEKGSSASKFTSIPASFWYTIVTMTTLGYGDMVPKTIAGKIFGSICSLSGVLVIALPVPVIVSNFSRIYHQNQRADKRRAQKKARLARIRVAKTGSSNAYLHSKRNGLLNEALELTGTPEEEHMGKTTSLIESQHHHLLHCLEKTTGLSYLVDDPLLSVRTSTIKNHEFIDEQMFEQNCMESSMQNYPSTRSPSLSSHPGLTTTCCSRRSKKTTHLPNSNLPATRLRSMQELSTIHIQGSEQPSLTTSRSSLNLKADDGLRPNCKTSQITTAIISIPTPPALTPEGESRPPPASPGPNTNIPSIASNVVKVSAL

SMILES	Fold current amplitude ([1]; 25 μM)	Fold current amplitude ([1]; 50 μM)	inhibition at 50 µM ([1]; CHO, 50 μM, read-out: inhibition of Kv1.2 current)	Fold current amplitude ([2]; 25 μM)	Fold current amplitude ([2]; 50 μM)	fold enhancement of current [3]	number of evoked action potentials [4]	opener activity on S4 mutant L206C [5]	Fold current amplitude [6]	Fold current amplitude ([7]; 25 μM)	Fold current amplitude ([7]; 50 μM)	number of evoked action potentials ([8]; 25 μM NH25, 75-200 pA for 400 ms, control 9.6±1.0, n=8)	hyperpolarization of resting membrane potential ([8]; NH25)
O=C(Cc1cc([N+](=O)[O-])cc([N+](=O)[O-])c1Nc1c(Cl)cc([N+](=O)[O-])cc1Cl)NCCO [NH29]	0.9 ± 0.01 fold	0.66 ± 0.03 fold	34%	1.0 ± 0.12 fold	0.9 ± 0.04 fold	1.6 fold	0.9±0.1	NH29 activity was preserved	1.1 ± 0.04 fold	1.02 ± 0.04 fold	0.97 ± 0.04 fold	–	–
O=C(Cc1cc([N+](=O)[O-])ccc1Nc1c(Cl)cccc1Cl)OCCO [NH25]	–	–	–	–	–	–	–	–	–	–	–	2.1±0.5	−8.5 mV
